Measurements from PubChem BioAssay AID1963968 (Molecular Pharmacology Branch, DTP, NCI, 2024).

Tested on: 945468-187-T-J3-PDC spheroids with HUVEC/MSC, viability
Assay: Anticancer human tumor 945468-187-T-J3-PDC patient-derived rectal carcinoma cell line growth inhibition [PI3K]
Conditions: for IC50: curve of first compound; for viability, T/C: stronger effect = lower value
Source text: Combinatorial screen of targeted agents with the PI3K inhibitors inavolisib, alpelisib, duvelisib, and copanlisib in multi-cell type tumor spheroids
A high-throughput screen of multi-cell type tumor spheroids was designed to identify active combinations of targeted small molecules and PI3K pathway inhibitors. Complex spheroids include a stromal component modeled by human endothelial cells (HUVEC) and fibroblasts modeled by human mesenchymal stem cells (MSCs). The concentration ranges selected for each drug and investigational agent were based upon clinically achievable concentrations if the clinical Cmax of the agent was known.
Compounds. The drugs and investigational agents: inavolisib (NSC800729), alpelisib (NSC765974), duvelisib (NSC772469), copanlisib (NSC816437), ipatasertib (NSC767898), afuresertib (NSC778305), talazoparib (NSC767125), sapanisertib (NSC764658), selumetinib (NSC741078), tovorafenib (DAY101, NSC766906), vemurafenib (NSC761431), ravoxertinib (NSC781343), sotorasib (NSC818433), MRTX1133 (NSC 836407), abemaciclib (NSC 768073), palbociclib (NSC758247), venetoclax (NSC 766270), SY5609 (NSC837396), enzalutamide (NSC755605), and darolutamide (NSC825331), were obtained from the National Cancer Institute (NCI) Developmental Therapeutics Program Chemical Repository. The FDA-approved anticancer drug set is available from the NCI Developmental Therapeutics Program. […] The stock solutions were prepared in dimethyl sulfoxide (DMSO, Sigma-Aldrich, St. Louis, MO, cat. D2650) at 800-fold the tested concentration and stored at -70 degrees C prior to their use. All drugs and investigational agents were tested over a range starting from a high concentration at or near the clinical Cmax and decreasing in half-log increments. If the clinical Cmax for an agent had not been determined, the highest concentration tested was 10 microM.
Cell Culture. All cells were maintained in an incubator at 37 degrees C and 5% CO2 with 95% humidity. The PDC lines were cultured according to standard operating procedures established by the NCI PDMR (https://pdmr.cancer.gov/sops/default.htm). All PDCs were thawed and cultured in Matrigel-coated flasks prepared with a working solution of 1X Ham's F-12 nutrient mix, without supplementation (Invitrogen, Waltham, MA, cat. 11765054), 100 U/mL penicillin-streptomycin (Invitrogen, cat. 15140122), and 2.5% Matrigel (Corning Inc., Corning, NY, cat. 354248) for the first three passages. The 354836-022-R-J1-PDC, 475296-252-R-J1-PDC, and 997726-040-R-J2-PDC lines were cultured in 6A media, which includes advanced DMEM/F-12 (Thermo Fisher Scientific, cat. 12634028), 10 mM HEPES (Thermo Fisher Scientific, cat. 15630080), 1X GlutaMAX supplement (Thermo Fisher Scientific, cat. 35050061), 0.1 mg/mL primocin (InvivoGen, San Diego, CA, cat. ant-pm-2), 10% defined fetal bovine serum, heat inactivated (HyClone Laboratories Inc., Logan, UT, cat. SH30070.03HI), 50% L-WRN conditioned media (ATCC, cat. CRL-3276), 1.25 mM N-Acetyl-L-cysteine (Sigma-Aldrich, cat. A9165), 10 mM nicotinamide (Sigma-Aldrich, cat. N0636), 1X B-27 supplement (Thermo Fisher Scientific, cat. 17504044), 1X N-2 supplement (Thermo Fisher Scientific, cat. 17502048), and 10 microM Y-27632 dihydrochloride (Tocris Bioscience, Bristol, United Kingdom, cat. 1254). The 624824-186-R-J2-PDC line was cultured in 6C/Colon 1B media, which includes all 6A media components plus 50 ng/mL human EGF recombinant protein (Thermo Fisher Scientific, cat. PHG0311). […]

[1] = second compound 0.00316 µM, first compound 0.0316 µM
[2] = second compound 0.00316 µM, first compound 0.1 µM
[3] = second compound 0.00316 µM, first compound 0.316 µM
[4] = second compound 0.00316 µM, first compound 1 µM
[5] = second compound 0.01 µM, first compound 0.0316 µM
[6] = second compound 0.01 µM, first compound 0.1 µM
[7] = second compound 0.01 µM, first compound 0.316 µM
[8] = second compound 0.01 µM, first compound 1 µM
[9] = second compound 0.0316 µM, first compound 0.0316 µM
[10] = second compound 0.0316 µM, first compound 0.1 µM
[11] = second compound 0.0316 µM, first compound 0.316 µM
[12] = second compound 0.0316 µM, first compound 1 µM
[13] = second compound 0.1 µM, first compound 0.0316 µM
[14] = second compound 0.1 µM, first compound 0.1 µM
[15] = second compound 0.1 µM, first compound 0.316 µM
[16] = second compound 0.1 µM, first compound 1 µM
[17] = second compound 0.316 µM, first compound 0.0316 µM
[18] = second compound 0.316 µM, first compound 0.1 µM
[19] = second compound 0.316 µM, first compound 0.316 µM
[20] = second compound 0.316 µM, first compound 1 µM
[21] = second compound 1 µM, first compound 0.0316 µM
[22] = second compound 1 µM, first compound 0.1 µM
[23] = second compound 1 µM, first compound 0.316 µM
[24] = second compound 1 µM, first compound 1 µM
[25] = second compound 0.00316 µM, first compound 3.16 µM
[26] = second compound 0.00316 µM, first compound 10 µM
[27] = second compound 0.01 µM, first compound 3.16 µM
[28] = second compound 0.01 µM, first compound 10 µM
[29] = second compound 0.0316 µM, first compound 3.16 µM
[30] = second compound 0.0316 µM, first compound 10 µM
[31] = second compound 0.1 µM, first compound 3.16 µM
[32] = second compound 0.1 µM, first compound 10 µM
[33] = second compound 0.316 µM, first compound 3.16 µM
[34] = second compound 0.316 µM, first compound 10 µM
[35] = second compound 1 µM, first compound 3.16 µM
[36] = second compound 1 µM, first compound 10 µM
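Also: spheroids exposed to agents for 7 days before viability read.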
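For viability, T/C in this document: 100% = DMSO vehicle control viability.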

## CCN1CCN(Cc2ccc(Nc3ncc(F)c(-c4cc(F)c5nc(C)n(C(C)C)c5c4)n3)nc2)CC1 + CC(Nc1ccc2c(c1)OCCn1cc(N3C(=O)OCC3C(F)F)nc1-2)C(N)=O
Second compound 0.00316 µM
  IC50: > 1000 nM
Second compound 0.01 µM
  IC50: > 1000 nM
Second compound 0.0316 µM
  IC50: > 1000 nM
Second compound 0.1 µM
  IC50: 539 nM
Second compound 0.316 µM
  IC50: 191 nM
Second compound 1 µM
  IC50: 29.5 nM
Second compound 0.00316 µM, first compound 0.00316 µM
  viability, T/C: 92%
Second compound 0.00316 µM, first compound 0.01 µM
  viability, T/C: 103%
[1]
  viability, T/C: 98%
[2]
  viability, T/C: 95.6%
[3]
  viability, T/C: 95.2%
[4]
  viability, T/C: 93.1%
Second compound 0.01 µM, first compound 0.00316 µM
  viability, T/C: 89.4%
Second compound 0.01 µM, first compound 0.01 µM
  viability, T/C: 103%
[5]
  viability, T/C: 95.1%
[6]
  viability, T/C: 106%
[7]
  viability, T/C: 123%
[8]
  viability, T/C: 70.1%
Second compound 0.0316 µM, first compound 0.00316 µM
  viability, T/C: 104%
Second compound 0.0316 µM, first compound 0.01 µM
  viability, T/C: 96.7%
[9]
  viability, T/C: 94.2%
[10]
  viability, T/C: 97.3%
[11]
  viability, T/C: 102%
[12]
  viability, T/C: 53%
Second compound 0.1 µM, first compound 0.00316 µM
  viability, T/C: 91.2%
Second compound 0.1 µM, first compound 0.01 µM
  viability, T/C: 102%
[13]
  viability, T/C: 94.1%
[14]
  viability, T/C: 94.1%
[15]
  viability, T/C: 69%
[16]
  viability, T/C: 28.1%
Second compound 0.316 µM, first compound 0.00316 µM
  viability, T/C: 87.7%
Second compound 0.316 µM, first compound 0.01 µM
  viability, T/C: 77.5%
[17]
  viability, T/C: 77.8%
[18]
  viability, T/C: 69.7%
[19]
  viability, T/C: 35%
[20]
  viability, T/C: 23.4%
Second compound 1 µM, first compound 0.00316 µM
  viability, T/C: 76.9%
Second compound 1 µM, first compound 0.01 µM
  viability, T/C: 56.7%
[21]
  viability, T/C: 48.6%
[22]
  viability, T/C: 43%
[23]
  viability, T/C: 32.1%
[24]
  viability, T/C: 25%

## Cn1ncc(Cl)c1-c1cc(C(=O)NC(CN)Cc2cccc(F)c2)sc1Cl (stereo unspecified) + CC(Nc1ccc2c(c1)OCCn1cc(N3C(=O)OCC3C(F)F)nc1-2)C(N)=O
Second compound 0.00316 µM
  IC50: 5400 nM
Second compound 0.01 µM
  IC50: 3090 nM
Second compound 0.0316 µM
  IC50: 2570 nM
Second compound 0.1 µM
  IC50: 1820 nM
Second compound 0.316 µM
  IC50: 1120 nM
Second compound 1 µM
  IC50: 193 nM
[1]
  viability, T/C: 100%
[2]
  viability, T/C: 99%
[3]
  viability, T/C: 83.8%
[4]
  viability, T/C: 80.8%
[25]
  viability, T/C: 58.9%
[26]
  viability, T/C: 38.1%
[5]
  viability, T/C: 107%
[6]
  viability, T/C: 107%
[7]
  viability, T/C: 100%
[8]
  viability, T/C: 86.2%
[27]
  viability, T/C: 48.5%
[28]
  viability, T/C: 38.2%
[9]
  viability, T/C: 118%
[10]
  viability, T/C: 99.6%
[11]
  viability, T/C: 82.4%
[12]
  viability, T/C: 62%
[29]
  viability, T/C: 47.6%
[30]
  viability, T/C: 35.1%
[13]
  viability, T/C: 96.6%
[14]
  viability, T/C: 89.5%
[15]
  viability, T/C: 81.8%
[16]
  viability, T/C: 55.8%
[31]
  viability, T/C: 43.9%
[32]
  viability, T/C: 25.9%
[17]
  viability, T/C: 96%
[18]
  viability, T/C: 87.8%
[19]
  viability, T/C: 57.5%
[20]
  viability, T/C: 55.6%
[33]
  viability, T/C: 38.5%
[34]
  viability, T/C: 23.3%
[21]
  viability, T/C: 89.4%
[22]
  viability, T/C: 55.2%
[23]
  viability, T/C: 45.4%
[24]
  viability, T/C: 32.9%
[35]
  viability, T/C: 33%
[36]
  viability, T/C: 19.6%

## Cn1nccc1Nc1nccc(-c2ccn(C(CO)c3ccc(Cl)c(F)c3)c(=O)c2)n1 (stereo unspecified) + CC(Nc1ccc2c(c1)OCCn1cc(N3C(=O)OCC3C(F)F)nc1-2)C(N)=O
Second compound 0.00316 µM
  IC50: > 10000 nM
Second compound 0.01 µM
  IC50: > 10000 nM
Second compound 0.0316 µM
  IC50: > 10000 nM
Second compound 0.1 µM
  IC50: > 10000 nM
Second compound 0.316 µM
  IC50: > 10000 nM
Second compound 1 µM
  IC50: > 10000 nM
[1]
  viability, T/C: 93.2%
[2]
  viability, T/C: 108%
[3]
  viability, T/C: 103%
[4]
  viability, T/C: 120%
[25]
  viability, T/C: 143%
[26]
  viability, T/C: 145%
[5]
  viability, T/C: 103%
[6]
  viability, T/C: 101%
[7]
  viability, T/C: 97.5%
[8]
  viability, T/C: 115%
[27]
  viability, T/C: 124%
[28]
  viability, T/C: 131%
[9]
  viability, T/C: 106%
[10]
  viability, T/C: 99.4%
[11]
  viability, T/C: 106%
[12]
  viability, T/C: 122%
[29]
  viability, T/C: 131%
[30]
  viability, T/C: 123%
[13]
  viability, T/C: 102%
[14]
  viability, T/C: 108%
[15]
  viability, T/C: 115%
[16]
  viability, T/C: 124%
[31]
  viability, T/C: 115%
[32]
  viability, T/C: 116%
[17]
  viability, T/C: 97.3%
[18]
  viability, T/C: 91.7%
[19]
  viability, T/C: 97.2%
[20]
  viability, T/C: 89.3%
[33]
  viability, T/C: 78.3%
[34]
  viability, T/C: 80.1%
[21]
  viability, T/C: 78.8%
[22]
  viability, T/C: 79.8%
[23]
  viability, T/C: 65%
[24]
  viability, T/C: 72%
[35]
  viability, T/C: 60.7%
[36]
  viability, T/C: 62.7%
